# Measurements reported in US20030092004A1 (priority 2001, published 2003).
# “Also recorded” adds a separate entry of the source. Like-named read-outs stand apart in the source and are kept apart here.
# How the values were obtained:
# [1] = target: NR1/NR3B receptors (Rattus norvegicus, UniProt P35439+Q8VHN2); test: Two-electrode voltage-clamp recording of whole-cell currents in Xenopus oocytes injected with NR1 and NR3B cRNA; type: cell-based; conditions: for effect on glycine-evoked NR1/NR3B currents on co-application: doses maximally effective at classical NMDARs
# NR1/NR3B receptors, sequence (Q8VHN2 25-1002, other chains not shown): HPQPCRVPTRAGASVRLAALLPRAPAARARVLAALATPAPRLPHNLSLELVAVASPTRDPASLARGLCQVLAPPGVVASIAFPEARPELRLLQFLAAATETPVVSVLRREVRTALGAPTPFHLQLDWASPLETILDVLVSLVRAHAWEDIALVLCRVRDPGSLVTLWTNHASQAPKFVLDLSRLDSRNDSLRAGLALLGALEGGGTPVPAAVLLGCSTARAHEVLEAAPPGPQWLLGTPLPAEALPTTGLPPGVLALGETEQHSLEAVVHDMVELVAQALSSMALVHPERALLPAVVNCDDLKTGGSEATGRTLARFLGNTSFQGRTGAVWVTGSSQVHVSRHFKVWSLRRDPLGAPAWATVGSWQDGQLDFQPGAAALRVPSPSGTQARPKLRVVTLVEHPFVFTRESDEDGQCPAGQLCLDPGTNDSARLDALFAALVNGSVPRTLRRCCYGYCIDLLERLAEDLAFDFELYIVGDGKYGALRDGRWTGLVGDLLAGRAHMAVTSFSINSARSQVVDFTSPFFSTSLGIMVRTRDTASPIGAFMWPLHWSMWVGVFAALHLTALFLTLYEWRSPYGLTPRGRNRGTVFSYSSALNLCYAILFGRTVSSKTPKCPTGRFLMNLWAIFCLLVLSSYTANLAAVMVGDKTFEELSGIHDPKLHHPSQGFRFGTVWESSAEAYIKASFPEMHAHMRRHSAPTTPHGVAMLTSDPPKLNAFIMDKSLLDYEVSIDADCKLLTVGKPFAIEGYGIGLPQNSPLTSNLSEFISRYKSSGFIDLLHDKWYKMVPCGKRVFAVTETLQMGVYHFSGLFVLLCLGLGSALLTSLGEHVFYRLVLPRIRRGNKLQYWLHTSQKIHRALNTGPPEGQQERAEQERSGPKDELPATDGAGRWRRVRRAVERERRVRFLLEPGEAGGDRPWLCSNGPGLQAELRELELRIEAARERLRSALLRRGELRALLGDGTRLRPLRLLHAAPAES
# Experimental: Currents were recorded in 1.5 mM Ba^2+ Ringers' solution from oocytes injected with 2 ng of NR1 cRNA and 12 ng of NR3B cRNA.
# NR3B cRNA for oocyte expression was produced as follows. The full-length NR3B cDNA was constructed in the pCMV6-XL4 vector (OriGene Technologies, Inc., Rockville, Md.), which contains a T7 promoter upstream of the cDNA insert. […] The truncated cRNA could potentially encode a dominant negative form of NR3B. Therefore, a new vector was constructed to facilitate production of exclusively full-length NR3B cRNA. Construction of this vector proceeded as follows. NR1 cDNA was excised from the pGEM-HE/NR1 vector (a gift from S. F. Heinemann) by digestion with EcoRI and the two ends of the truncated pGEM-HE vector were re-ligated. The truncated pGEM-HE vector retained the 5′ and 3′ UTRs of the X. laevis β-globin gene for high level protein expression in frog oocytes. The SfoI-KpnI fragment of truncated pGEM-HE, which contains the T7 promoter, was replaced with the PvuII-KpnI fragment of pBluescript II KS, which contains the T3 promoter, to generate pJC32. The abbreviated multiple cloning site of pJC32 was then replaced with the multiple cloning site from pcDNA3.1(+) (Invitrogen, Carlsbad, Calif.) by ligating the 102 bp PmeI fragment of pcDNA3.1(+) into the 3 kb SmaI-EcoRV fragment of pJC32 to generate pJC34. Oligos encoding restriction sites for AscI, PacI, and PmeI (ctagc[…]g (SEQ ID NO:52) and ctagc[…]g (SEQ ID NO:53)) were annealed and ligated into the NheI site of pJC34. The resulting vector, pJC39, contains three rare restriction sites downstream of the multiple cloning site to facilitate linearization prior to in vitro transcription using T3 RNA polymerase.
# The full-length NR3B (B4 form) cDNA was then excised from pCMV6-XL4 by digestion with EcoRI and XbaI, and the 3.2 kb fragment was ligated into EcoRI/XbaI-digested pJC39. The resulting vector, pJC42, was linearized with PmeI, and in vitro transcription was performed using the mMessage mMachine T3 kit (Ambion, Inc., Austin, Tex.) according to the manufacturer's instructions.
# Micropipettes were filled with 3M KCl.
# [2] = target: NR1/NR3A receptors (Rattus norvegicus, UniProt P35439+Q9R1M7); test: Two-electrode voltage recording of glycine-evoked currents in oocytes injected with NR1 and NR3A subunits
# NR1/NR3A receptors, sequence (Q9R1M7 24-1135, other chains not shown): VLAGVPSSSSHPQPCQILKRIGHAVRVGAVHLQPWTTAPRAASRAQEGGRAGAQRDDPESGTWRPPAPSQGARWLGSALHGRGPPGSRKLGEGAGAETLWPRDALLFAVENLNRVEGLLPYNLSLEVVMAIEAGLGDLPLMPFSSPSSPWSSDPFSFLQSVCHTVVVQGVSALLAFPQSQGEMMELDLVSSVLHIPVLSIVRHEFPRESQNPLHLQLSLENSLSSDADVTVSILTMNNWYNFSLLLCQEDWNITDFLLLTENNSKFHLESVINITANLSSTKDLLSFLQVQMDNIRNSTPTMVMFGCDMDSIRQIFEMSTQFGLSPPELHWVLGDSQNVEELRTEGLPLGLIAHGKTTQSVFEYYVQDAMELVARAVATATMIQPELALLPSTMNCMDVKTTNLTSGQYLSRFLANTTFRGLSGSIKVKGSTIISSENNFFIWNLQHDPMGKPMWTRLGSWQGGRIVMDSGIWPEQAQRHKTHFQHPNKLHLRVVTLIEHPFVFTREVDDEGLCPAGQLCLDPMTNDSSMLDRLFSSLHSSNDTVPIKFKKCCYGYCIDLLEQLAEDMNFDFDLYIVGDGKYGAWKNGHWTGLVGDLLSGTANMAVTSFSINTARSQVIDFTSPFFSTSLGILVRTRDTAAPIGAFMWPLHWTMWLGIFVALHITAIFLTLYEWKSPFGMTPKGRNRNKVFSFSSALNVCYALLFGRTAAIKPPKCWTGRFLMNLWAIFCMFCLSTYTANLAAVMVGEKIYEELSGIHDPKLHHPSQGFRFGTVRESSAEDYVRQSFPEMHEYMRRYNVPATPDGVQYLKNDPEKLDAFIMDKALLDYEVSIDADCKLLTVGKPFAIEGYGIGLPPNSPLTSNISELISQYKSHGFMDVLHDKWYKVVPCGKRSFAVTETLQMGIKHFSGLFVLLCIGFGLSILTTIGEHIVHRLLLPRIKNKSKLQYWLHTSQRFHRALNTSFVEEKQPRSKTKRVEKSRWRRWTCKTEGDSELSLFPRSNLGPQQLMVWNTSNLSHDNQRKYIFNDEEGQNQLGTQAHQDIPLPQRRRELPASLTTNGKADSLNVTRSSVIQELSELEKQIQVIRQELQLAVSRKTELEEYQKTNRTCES
# Experimental: Microinjection of oocytes and electrophysiological recordings were performed as follows. Physiological and pharmacological properties of NMDA receptor subunits were characterized in the X. laevis oocyte expression system. […] X. laevis oocytes were harvested and defolliculated by digestion with collagenase (2 mg/ml) for 2 hrs. Twenty to 40 ng of cRNA were injected into each oocyte using glass pipettes with a tip size of 20-40 μm in diameter. Electrophysiological recordings were performed from whole oocytes 2-7 days after injection using a dual-electrode voltage-clamp amplifier (Model OC-725A, Warner Instrument, Hamden, Conn.). Micropipettes were filled with 3M KCl. The bath solution contained 115 mM NaCl, 2.5 mM KCl, 1.5 mM BaCl2, and 10 mM Hepes at pH 7.4. Drugs were applied to oocytes via a rapid perfusion system. Data were collected at 2.2 to 11.1 Hz at room temperature using the MacLab/4e A/D converter (AD Instruments, Mountain View, Calif.). Data analysis was performed using the programs Chart (AD Instruments, Mountain View, Calif.) and Microsoft Excel.
# [3] = target: NR1/NR2A receptors (Rattus norvegicus, UniProt P35439+Q00959); test: Two-electrode voltage-clamp recording of NMDA plus glycine-evoked currents in Xenopus oocytes expressing NR1/NR2A; type: cell-based; conditions: for effect on NR1/NR2A currents: 100 μM NMDA plus 10 μM glycine
# NR1/NR2A receptors, sequence (Q00959 20-1464 limits assumed, other chains not shown): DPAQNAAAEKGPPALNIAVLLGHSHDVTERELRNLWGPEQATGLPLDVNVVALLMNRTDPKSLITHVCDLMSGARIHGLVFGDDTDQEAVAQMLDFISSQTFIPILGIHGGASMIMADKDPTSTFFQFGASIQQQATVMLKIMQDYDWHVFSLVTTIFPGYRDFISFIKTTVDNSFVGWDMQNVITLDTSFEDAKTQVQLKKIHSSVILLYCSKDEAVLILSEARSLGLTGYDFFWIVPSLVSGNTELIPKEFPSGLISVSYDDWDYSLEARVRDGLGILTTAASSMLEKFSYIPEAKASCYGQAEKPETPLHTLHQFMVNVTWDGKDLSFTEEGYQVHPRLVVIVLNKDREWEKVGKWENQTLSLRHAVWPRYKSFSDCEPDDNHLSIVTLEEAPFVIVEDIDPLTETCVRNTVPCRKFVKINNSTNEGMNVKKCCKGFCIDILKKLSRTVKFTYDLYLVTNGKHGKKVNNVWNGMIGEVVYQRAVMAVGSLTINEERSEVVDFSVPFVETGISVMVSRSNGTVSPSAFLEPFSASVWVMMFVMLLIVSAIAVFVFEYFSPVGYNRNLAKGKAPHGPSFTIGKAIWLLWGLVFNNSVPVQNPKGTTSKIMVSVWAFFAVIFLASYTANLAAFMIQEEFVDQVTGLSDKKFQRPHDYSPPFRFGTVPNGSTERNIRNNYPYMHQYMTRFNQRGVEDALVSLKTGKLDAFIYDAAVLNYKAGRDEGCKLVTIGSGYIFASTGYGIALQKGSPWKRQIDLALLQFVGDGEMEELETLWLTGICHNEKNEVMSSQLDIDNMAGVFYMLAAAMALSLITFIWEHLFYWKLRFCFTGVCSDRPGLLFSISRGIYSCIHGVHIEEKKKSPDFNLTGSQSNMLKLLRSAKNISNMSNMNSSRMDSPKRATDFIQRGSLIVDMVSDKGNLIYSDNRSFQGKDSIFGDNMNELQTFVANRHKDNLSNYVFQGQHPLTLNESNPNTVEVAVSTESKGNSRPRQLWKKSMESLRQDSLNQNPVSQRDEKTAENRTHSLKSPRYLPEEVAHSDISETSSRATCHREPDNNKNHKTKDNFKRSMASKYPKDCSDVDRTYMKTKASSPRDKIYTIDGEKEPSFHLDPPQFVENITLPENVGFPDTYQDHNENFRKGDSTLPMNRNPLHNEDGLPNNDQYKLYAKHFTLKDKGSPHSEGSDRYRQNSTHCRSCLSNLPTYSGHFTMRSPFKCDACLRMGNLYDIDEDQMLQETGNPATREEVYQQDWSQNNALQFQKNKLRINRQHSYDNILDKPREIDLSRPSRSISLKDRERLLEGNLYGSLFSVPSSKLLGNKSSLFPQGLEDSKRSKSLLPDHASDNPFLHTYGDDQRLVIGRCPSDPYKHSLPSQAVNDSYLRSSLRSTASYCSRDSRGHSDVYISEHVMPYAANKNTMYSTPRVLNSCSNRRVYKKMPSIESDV
# Experimental: Microinjection of oocytes and electrophysiological recordings were performed as follows. Physiological and pharmacological properties of NMDA receptor subunits were characterized in the X. laevis oocyte expression system. Full-length cDNAs encoding NMDA receptor subunits were linearized and used as templates for synthesis of cRNA by in vitro transcription using T3 or T7 RNA polymerase (Ambion, Inc., Austin, Tex.). The DNA template was removed by DNase I digestion, and the RNA was purified by phenol/chloroform extraction and ethanol precipitation. The RNA was resuspended in water at 1 μg/μl and stored in −80° C. freezer until use. X. laevis oocytes were harvested and defolliculated by digestion with collagenase (2 mg/ml) for 2 hrs. Twenty to 40 ng of cRNA were injected into each oocyte using glass pipettes with a tip size of 20-40 μm in diameter. […] Micropipettes were filled with 3M KCl. […] Drugs were applied to oocytes via a rapid perfusion system. Data were collected at 2.2 to 11.1 Hz at room temperature using the MacLab/4e A/D converter (AD Instruments, Mountain View, Calif.). Data analysis was performed using the programs Chart (AD Instruments, Mountain View, Calif.) and Microsoft Excel.
# [4] = concentration of compound not given or dose-dependent
# [5] = no glutamate/NMDA, 1.5 mM Ba2+ Ringers' solution
smiles,measurement,setting,value
"O=C(O)c1cc(=O)c2c(Cl)cc(Cl)cc2[nH]1 [5,7-dichlorokynurenic acid]",effect on glycine-evoked NR1/NR3B currents,[1]; [4],completely inhibits
same,effect on glycine-evoked NR1/NR3B currents,"[1]; concentration of compound not given or dose-dependent, listed as 5, 7-di-Cl-Kynurenate",blocks
same,effect on glycine-evoked NR1/NR3B currents,"[1]; concentration of compound not given or dose-dependent, listed as 5,7-dichlorokynurenate",completely abolished
same,effect on glycine-evoked NR1/NR3A currents,"[2]; listed as 5, 7-di-Cl-Kynurenate",effectively blocked
same,effect on glycine-evoked NR1/NR3A currents,"[2]; listed as 5,7-dichlorokynurenate",blocked
NC1(C(=O)O)CC1 [ACPC],effect on glycine-evoked NR1/NR3B currents on co-application,[1]; 10 μM glycine,produces relative inhibition
same,effect on glycine-evoked NR1/NR3B currents,[1]; [4],inhibited
same,NR1/NR3B current evoked by compound applied alone,[1]; [5],does not evoke detectable NR1/NR3B currents
same,NR1/NR2A currents on co-application with NMDA (co-agonist activity),[3]; co-applied with 100 μM NMDA,evokes NR1/NR2A currents
"NC(CCCP(=O)(O)O)C(=O)O (stereo not shown) [APV, 2-amino-5-phosphonovalerate]",effect on glycine-evoked NR1/NR3B currents,[1],little or no effect; also recorded: has little effect
same,effect on glycine-induced NR1/NR3B current,[1],"actually potentiated glycine-evoked current somewhat; also recorded: did not block the glycine-induced current, and actually potentiated the current"
same,effect on NR1/NR2A currents,[3]; compound 10 μM,blocks
same,effect on glycine-evoked NR1/NR3A currents,[2],blocked the current only slightly
N[C@H](CO)C(=O)O [D-serine],effect on glycine-evoked NR1/NR3B currents on co-application,[1]; 10 μM glycine,produces relative inhibition
same,effect on glycine-evoked NR1/NR3B currents,[1]; [4],dose-dependently inhibits currents; also recorded: inhibited; also recorded: inhibits glycine-evoked responses in a dose-dependent fashion
same,NR1/NR3B current evoked by compound applied alone,[1]; [5],evokes small NR1/NR3B currents alone
same,effect on glycine-evoked NR1/NR3A currents,[2],effectively blocked
N[C@@H](CS)C(=O)O [L-cysteine],effect on NR1/NR3B currents evoked by glycine,"[1]; compound 50 μM, 5 μM glycine",have little effect or only slightly potentiate the current
same,effect on glycine-evoked NR1/NR3B currents,[1]; [4],slightly potentiated
C[C@]12N[C@H](Cc3ccccc31)c1ccccc12 [MK801],effect on glycine-evoked NR1/NR3B currents,[1],does not block and in fact appears to slightly potentiate
same,sensitivity of NR1/NR3B receptors to channel blocker compared to NR1/NR2A (NR2-containing) receptors,[1],drastically less sensitive
same,effect on NR1/NR2A currents,[3]; compound 10 μM,complete blockade
same,effect on glycine-evoked NR1/NR3A currents,[2],"not only failed to block glycine-evoked currents of NR1/NR3A receptors, but actually potentiated these currents; also recorded: potentiates"
CC12CC3CC(C)(C1)CC(N)(C3)C2 [Memantine],effect on NR1/NR2A currents,[3]; compound 12 μM,completely blocks
[Mg+2] [Mg^2+],sensitivity of NR1/NR3B receptors to channel blocker compared to NR1/NR2A (NR2-containing) receptors,[1]; comparison with NR2 subunit-containing receptors,drastically less sensitive; also recorded: much less potently
same,effect on glycine-induced NR1/NR3B current,"[1]; compound 0.5 mM, 10 μM glycine, holding potential −60 mV",had no effect
same,effect on glycine-evoked NR1/NR3B currents,[1]; [4],weakly inhibits
same,effect on NR1/NR2A currents,[3]; compound 0.1 mM,inhibition
same,effect on glycine-evoked NR1/NR3A currents,[2],no inhibitory effect
same,effect on glycine-evoked NR1/NR3A currents,[2]; higher glycine levels,potentiates peak currents without affecting the steady state current
same,effect on glycine-evoked NR1/NR3A currents,[2]; low glycine levels,"not only failed to block glycine-evoked currents of NR1/NR3A receptors, but actually potentiated these currents; also recorded: actually potentiates"
"CN[C@H](CC(=O)O)C(=O)O [NMDA, N-methyl-D-aspartate]",NR1/NR3B current evoked by compound applied alone,[1],little or no effect
same,effect on glycine-evoked NR1/NR3B currents,[1],little or no effect; also recorded: does not potentiate
N[C@@H](CCC(=O)O)C(=O)O [glutamate],effect on NR1/NR3B currents evoked by glycine,[1],have little effect or only slightly potentiate the current
